Results reported in paper PMC9134006 (RSC Advances, 2021).

Legend:
hAChE (human AChE) = hAChE (human AChE) (Homo sapiens, UniProt P22303); assay: Inhibition of hAChE; format: biochemical; conditions: for remaining activity at 10 µM: read-out: hAChE RA (residual activity) at 10 μM; for remaining activity at 100 µM: read-out: hAChE RA (residual activity) at 100 μM
hBChE (human BChE) = hBChE (human BChE) (Homo sapiens, UniProt P06276); assay: Inhibition of hBChE; format: biochemical; conditions: for remaining activity at 10 µM: read-out: hBChE RA (residual activity) at 10 μM; for remaining activity at 100 µM: read-out: hBChE RA (residual activity) at 100 μM
hBChE (human BChE), sequence (P06276 29-602): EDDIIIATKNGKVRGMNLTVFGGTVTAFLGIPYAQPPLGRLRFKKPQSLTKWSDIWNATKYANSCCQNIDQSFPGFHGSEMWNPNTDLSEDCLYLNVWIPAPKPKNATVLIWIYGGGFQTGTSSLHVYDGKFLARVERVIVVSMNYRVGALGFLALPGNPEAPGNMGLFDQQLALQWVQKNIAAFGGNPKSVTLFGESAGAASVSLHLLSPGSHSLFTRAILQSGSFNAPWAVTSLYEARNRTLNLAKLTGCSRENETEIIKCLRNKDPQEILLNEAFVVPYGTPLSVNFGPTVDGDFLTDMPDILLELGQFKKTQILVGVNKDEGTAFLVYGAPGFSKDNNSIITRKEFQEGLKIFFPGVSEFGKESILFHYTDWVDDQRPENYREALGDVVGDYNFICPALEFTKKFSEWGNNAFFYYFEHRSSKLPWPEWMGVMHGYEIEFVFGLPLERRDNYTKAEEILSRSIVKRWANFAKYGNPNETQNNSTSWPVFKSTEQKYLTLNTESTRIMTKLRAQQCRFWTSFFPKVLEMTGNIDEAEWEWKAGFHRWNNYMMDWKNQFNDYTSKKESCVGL

hMAO-B (human MAO-B) = molecular target: T1, hMAO-B (human MAO-B) (Homo sapiens, UniProt P27338); assay: Inhibition of hMAO-B; format: biochemical; conditions: for remaining activity at 10 µM: read-out: hMAO-B RA (residual activity) at 10 μM; for remaining activity at 100 µM: read-out: hMAO-B RA (residual activity) at 100 μM; for inhibition of hMAO-B (in words): versus hAChE, hBChE, hMAO-A
T1 sequence (P27338 1-520): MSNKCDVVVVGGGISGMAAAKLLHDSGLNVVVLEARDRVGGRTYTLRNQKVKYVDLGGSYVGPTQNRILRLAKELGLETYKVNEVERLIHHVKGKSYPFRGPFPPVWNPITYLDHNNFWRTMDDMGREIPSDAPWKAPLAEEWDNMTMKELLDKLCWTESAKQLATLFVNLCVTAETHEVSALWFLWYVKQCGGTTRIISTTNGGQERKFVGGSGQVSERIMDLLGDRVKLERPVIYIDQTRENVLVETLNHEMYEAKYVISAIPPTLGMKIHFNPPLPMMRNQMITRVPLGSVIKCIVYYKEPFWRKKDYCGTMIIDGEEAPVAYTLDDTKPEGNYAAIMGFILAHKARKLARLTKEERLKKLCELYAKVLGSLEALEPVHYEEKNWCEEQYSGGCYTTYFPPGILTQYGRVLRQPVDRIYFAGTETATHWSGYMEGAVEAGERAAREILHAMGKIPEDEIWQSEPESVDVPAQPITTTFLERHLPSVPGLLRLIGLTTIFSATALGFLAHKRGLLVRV

hMAO-A (human MAO-A) = molecular target: T2, hMAO-A (human MAO-A) (Homo sapiens, UniProt P21397); assay: Inhibition of hMAO-A; conditions: for remaining activity at 10 µM: read-out: hMAO-A RA (residual activity) at 10 μM; for remaining activity at 100 µM: read-out: hMAO-A RA (residual activity) at 100 μM
T2 sequence (P21397 1-527): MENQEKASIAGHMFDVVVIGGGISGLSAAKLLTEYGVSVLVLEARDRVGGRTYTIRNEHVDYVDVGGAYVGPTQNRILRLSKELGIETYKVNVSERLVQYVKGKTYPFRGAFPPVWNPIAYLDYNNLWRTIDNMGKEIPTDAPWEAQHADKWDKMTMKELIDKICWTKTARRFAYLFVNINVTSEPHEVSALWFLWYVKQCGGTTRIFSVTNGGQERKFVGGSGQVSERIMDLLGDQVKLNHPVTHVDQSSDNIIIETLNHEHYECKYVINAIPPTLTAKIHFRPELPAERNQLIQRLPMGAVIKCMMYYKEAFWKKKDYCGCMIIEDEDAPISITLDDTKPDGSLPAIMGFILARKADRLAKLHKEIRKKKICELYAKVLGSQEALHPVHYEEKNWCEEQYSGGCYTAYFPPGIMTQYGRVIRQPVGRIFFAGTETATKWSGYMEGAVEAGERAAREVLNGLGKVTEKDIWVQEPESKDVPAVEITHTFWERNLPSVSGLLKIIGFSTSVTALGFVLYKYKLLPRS

[1] = ref 29b,37; cited from earlier work

hAChE (human AChE), sequence (P22303 32-614): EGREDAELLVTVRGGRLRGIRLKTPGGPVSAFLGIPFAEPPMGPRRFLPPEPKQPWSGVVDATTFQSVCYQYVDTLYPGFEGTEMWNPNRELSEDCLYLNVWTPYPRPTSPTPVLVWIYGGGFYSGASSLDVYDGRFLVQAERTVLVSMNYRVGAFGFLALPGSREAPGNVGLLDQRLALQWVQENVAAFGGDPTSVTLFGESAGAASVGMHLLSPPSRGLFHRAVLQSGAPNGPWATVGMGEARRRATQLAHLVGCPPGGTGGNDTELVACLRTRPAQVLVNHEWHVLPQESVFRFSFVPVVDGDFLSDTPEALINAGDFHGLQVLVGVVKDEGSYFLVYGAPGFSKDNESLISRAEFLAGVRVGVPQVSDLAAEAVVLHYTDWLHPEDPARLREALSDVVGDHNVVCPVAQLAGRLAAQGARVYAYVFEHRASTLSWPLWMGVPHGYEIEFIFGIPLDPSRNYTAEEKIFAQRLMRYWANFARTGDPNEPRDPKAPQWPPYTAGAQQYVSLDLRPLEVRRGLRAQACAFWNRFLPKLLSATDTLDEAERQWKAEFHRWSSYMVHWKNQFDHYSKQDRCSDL

| Compound | remaining activity at 10 µM (hAChE (human AChE)) [%] | remaining activity at 100 µM (hAChE (human AChE)) [%] | remaining activity at 10 µM (hBChE (human BChE)) [%] | remaining activity at 100 µM (hBChE (human BChE)) [%] | IC50 (hMAO-B (human MAO-B)) [µM] | remaining activity at 10 µM (hMAO-B (human MAO-B)) [%] | remaining activity at 100 µM (hMAO-B (human MAO-B)) [%] | inhibition of hMAO-B (in words) (hMAO-B (human MAO-B)) | remaining activity at 10 µM (hMAO-A (human MAO-A)) [%] | remaining activity at 100 µM (hMAO-A (human MAO-A)) [%] | anti-inflammatory activity [1] [%] |
| --- | --- | --- | --- | --- | --- | --- | --- | --- | --- | --- | --- |
| COc1ccc(-c2cnn3c(C(F)(F)F)cc(=O)[nH]c23)cc1 [Compound 5a, 3-(4-Methoxyphenyl)-7-(trifluoromethyl)pyrazolo[1,5-a]pyrimidin-5(4H)-one] | 93 | 86 | 90 | 103 | 35 | 73 | 26 | selectively inhibit hMAO-B in the micromolar range | 95 | 99 | – |
| COc1cccc(-c2cnn3c(C(F)(F)F)cc(=O)[nH]c23)c1 [Compound 5f, 3-(3-Methoxyphenyl)-7-(trifluoromethyl)pyrazolo[1,5-a]pyrimidin-5(4H)-one] | 91 | 88 | 97 | 95 | 101 | 80 | 40 | selectively inhibit hMAO-B in the micromolar range | 92 | 97 | – |
| O=c1cc(C(F)(F)F)n2ncc(-c3ccc4c(c3)OCCO4)c2[nH]1 [Compound 5h, 3-(2,3-Dihydrobenzo[b][1,4]dioxin-6-yl)-7-(trifluoromethyl)pyrazolo[1,5-a]pyrimidin-5(4H)-one] | 91 | 86 | 94 | 95 | 5.36 | 36 | 8 | selectively inhibit hMAO-B in the micromolar range | 110 | 95 | – |
| CC(=O)c1ccc(-c2cnn3c(C(F)(F)F)cc(=O)[nH]c23)cc1 [Compound 5i, 3-(4-Acetylphenyl)-7-(trifluoromethyl)pyrazolo[1,5-a]pyrimidin-5(4H)-one] | 90 | 91 | 91 | 99 | 26.2 | 75 | 21 | selectively inhibit hMAO-B in the micromolar range | 100 | 98 | – |
| FC(F)(F)c1cc(-c2ccc(Br)cc2)nc2c(-c3ccccc3)cnn12 [Compound 11h, 5-(4-Bromophenyl)-3-phenyl-7-(trifluoromethyl)pyrazolo[1,5-a]pyrimidine] | – | – | – | – | – | – | – | – | – | – | 83.4 |
| COc1ccc2c(c1)c(CC(=O)O)c(C)n2C(=O)c1ccc(Cl)cc1 [Indomethacin, reference compound] | – | – | – | – | – | – | – | – | – | – | 84.2 |
